Measurements reported in article PMC11302729, “Repurposing Hsp90 inhibitors as antimicrobials targeting two-component systems identifies compounds leading to loss of bacterial membrane integrity” (Microbiology Spectrum, 2024).
≈ marks a conversion by molar mass, not a printed value. Read-outs that look alike come from different tables or passages of the source.

Tests used:
[1] = tested on: Escherichia coli D21f2 with a truncated LPS barrier; assay: MIC (microdilution) against E. coli D21f2; assay type: cell-based
Text: We also tested the inhibitory activity of compounds in two different E. coli mutants: (i) E. coli JW5503 that lacks TolC efflux pumps and (ii) E. coli D21f2 that has a defective LPS inner core increasing permeability of the outer membrane. E. coli D21f2 has a slightly higher susceptibility to DPP compounds than E. coli ATCC25922.
(§1) Staphylococcus aureus str. Newman, Enterococcus faecalis vanA (strain E0155), Enterococcus faecium vanA (strain E1654), Escherichia coli ATCC 25922, Escherichia coli D21f2 with a truncated LPS barrier, Escherichia coli JW5503 (ΔtolC) ([49]), Pseudomonas aeruginosa ATCC 27853, and Pasteurella haemolytica ATCC 29701 were grown in Mueller-Hinton Broth (MHB) (Oxoid, Basingstoke, UK) and incubated at 37°C.
(§2) The minimal inhibitory concentration was determined using the microdilution method following the guidelines of the European Committee on Antimicrobial Susceptibility Testing ([50]). Briefly, a series of twofold dilutions in MHB of each compound were made in a 96-well plate, with final concentrations ranging from 50 to 0.39 µg/mL in 100 µL final volume per well. A hundred microliters of 1:100 dilution of an overnight culture of the correspondent bacteria in MHB was added to each well. Plates were incubated for 18 hours at 37°C. MIC was recorded as the lowest concentration where no growth was detected as measured by optical density at 600 nm (OD600) using Spectramax M5 (Molecular Devices LLC, San Jose, CA, USA). […] Wells containing bacteria with or without 1% DMSO and medium alone were included as controls in every plate.

[2] = tested on: Staphylococcus aureus str. Newman; assay: Minimal inhibitory concentration (microdilution) against S. aureus; assay type: cell-based; conditions: for MIC S. aureus: Table ST3
Experimental: as §1, §2

[3] = tested on: Pasteurella haemolytica ATCC 29701; assay: MIC (microdilution) against P. haemolytica; assay type: cell-based; conditions: for MIC: Mannheimia haemolytica
Experimental: as §1, §2

sheep red blood cells = assay: Haemolysis assay; assay type: cell-based; conditions: if considered to cause haemolysis to red blood cells
Experimental: The hemolysis assay was adapted from the study by Evans et al. ([65]). Briefly, sheep RBC 10% washed pooled cells in PBS (Rockland Immunochemicals, Limerick, PA, USA) were diluted 1:5 to give a final concentration of 2% RBCs in PBS. […] A non-treated control, 1% DMSO (vehicle control), and complete cell lysis control (Triton-X 2%) were included in each assay. After exposure samples were centrifuged at 4°C at 1,000 g for 15 min and 100 µL of supernatant transferred to a clean well in a 96-well, clear, flat-bottom plate (Corning Incorporated). Released hemoglobin was measured by absorption at 540 nm using a Spectramax M5 plate reader. The experiments were performed in quadruplicate. The percentage of hemolysis was calculated as follows:
Hemolysis=A540nm,testcondition−A540nm,DMSOcontrol/A540nm,TritonXControl−A540nm,DMSOcontrol

E. coli EnvZ = molecular target: T1, E. coli EnvZ (Escherichia coli, UniProt P0AEJ4); assay: HK autophosphorylation inhibition, EnvZ; assay type: biochemical
T1 construct: Cytoplasmic domains from S. aureus PhoR and E. coli EnvZ; His6; made in house; host or cells: E. coli RIL
T1 sequence (P0AEJ4 180-450): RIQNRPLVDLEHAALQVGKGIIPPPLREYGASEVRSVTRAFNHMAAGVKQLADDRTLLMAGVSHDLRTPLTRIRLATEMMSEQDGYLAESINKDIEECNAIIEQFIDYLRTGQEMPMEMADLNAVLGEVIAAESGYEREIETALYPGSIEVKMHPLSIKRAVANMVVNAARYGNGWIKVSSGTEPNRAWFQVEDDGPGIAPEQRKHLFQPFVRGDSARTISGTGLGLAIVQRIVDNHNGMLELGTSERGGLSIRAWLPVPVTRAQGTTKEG
Experimental: (§3) Cytoplasmic domains from S. aureus PhoR and E. coli EnvZ as well the CA domain of Thermotoga maritima CheA were cloned in pNIC28-Bsa4 ([54]) plasmid containing His6-tag expressed in E. coli RIL and purified as previously described ([21], [55], [56]) using His-affinity and size exclusion chromatography. Briefly, E. coli RIL strains carrying the appropriate plasmid were grown in 1 L Luria broth (LB) (Merck Millipore) supplemented with kanamycin (100 µg/mL) with shaking (200 r.p.m.) at 37°C. When OD600 reached 0.5, 1 mM isopropyl-ß-D-1-thiogalactopyranoside (IPTG) was added to induce protein expression and cells were grown for 3 more hours. Cells were harvested by centrifugation (4,000 g, 4°C), resuspended in 40 mL buffer A (50 mM Tris-HCl pH 8.0, 0.5 M NaCl, 10% glycerol, and 1 mM phenylmethanesulfonyl fluoride), sonicated (4°C, 5 min with pulses of 15 sec at intervals of 1 min), and centrifuged (11,000 g, 4°C, 60 min). Supernatant was passed through a 5-mL HisTrap HP column (GE Healthcare) equilibrated in buffer A using the AKTA system (GE Healthcare). His-column was washed with buffer A (80 mL), and a linear gradient of imidazole (range 0 to 0.25 M) in buffer A was applied. The purest fractions evaluated by SDS-PAGE were collected, concentrated by ultrafiltration in a Amicon Ultra-15 (10- or 30-kDa exclusion) (Merck Millipore), and further purified by gel filtration using Superdex 200 column (GE Healthcare), equilibrated in buffer B (50 mM TrisHCl, pH 8.0, 0.2 M NaCl, and 5% glycerol). Purified proteins were then concentrated using ultrafiltration and stored at −80°C.
Autophosphorylation inhibition assays were performed in kinase assay buffer [100 mM Tris-HCl (pH 8.0), 5 mM MgCl2, 10 mM DTT], containing 5 µg of purified HK and 10 mM ATP for 30 min at 25°C. The reaction was stopped by adding gel loading buffer containing 16% SDS before loading the reaction on a 12% SDS-PAGE. […] To detect autophosphorylation, the gel was transferred to a nitrocellulose membrane (GE Healthcare) at 100 V in the transfer buffer (25 mM Tris, 192 mM Glycine, 10% Methanol). The membrane was then blocked using Tris-buffered saline solution with 0.1% vol/vol Tween 20 (TBS-T) supplied with 5% bovine serum albumin. The phosphorylated histidine was detected by western blotting by then incubating the membrane for 60 min with 1:1,000 anti-N1-phosphohistidine antibody (Merck Millipore) in TBS-T followed by a washing step for 30 min with TBS-T and a final 60-min incubation with 1:10,000 horseradish […] anti-rabbit IgG (Promega) in TBS-T. Chemiluminescent reaction was measured using Pierce ECL immunoblotting substrate (Thermo Scientific) in a LAS 3000 image analyzer (Fujifilm Life Science, Tokyo, Japan) followed by densitometric analysis using Multi Gauge image-analysis software (Fujifilm Life Science, Tokyo, Japan). The inhibitor concentrations required to halve the chemiluminescence intensity (IC50) were determined using Prism 4.1 (GraphPad Software, San Diego, CA, USA).

S. aureus PhoR = S. aureus PhoR (Staphylococcus aureus, UniProt Q2FXN7); assay: HK autophosphorylation inhibition, PhoR; assay type: biochemical; conditions: ± SD, n = 2; 10 mM ATP
Sequence of S. aureus PhoR (Q2FXN7 entry or part of it): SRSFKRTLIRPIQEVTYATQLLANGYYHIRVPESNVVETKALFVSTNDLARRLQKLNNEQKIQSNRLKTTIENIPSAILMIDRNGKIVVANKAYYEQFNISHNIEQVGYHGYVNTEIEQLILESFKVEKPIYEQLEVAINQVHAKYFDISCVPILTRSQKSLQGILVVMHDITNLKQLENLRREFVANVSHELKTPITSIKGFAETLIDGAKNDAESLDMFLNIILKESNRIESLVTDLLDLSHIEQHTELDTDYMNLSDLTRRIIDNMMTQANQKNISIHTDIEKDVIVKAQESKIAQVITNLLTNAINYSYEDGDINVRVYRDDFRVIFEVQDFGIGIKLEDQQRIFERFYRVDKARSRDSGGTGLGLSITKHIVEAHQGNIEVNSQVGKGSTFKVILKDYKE
Experimental: as §3
Autophosphorylation inhibition assays were performed in kinase assay buffer [100 mM Tris-HCl (pH 8.0), 5 mM MgCl2, 10 mM DTT], containing 5 µg of purified HK and 10 mM ATP for 30 min at 25°C. The reaction was stopped by adding gel loading buffer containing 16% SDS before loading the reaction on a 12% SDS-PAGE. […] The phosphorylated histidine was detected by western blotting by then incubating the membrane for 60 min with 1:1,000 anti-N1-phosphohistidine antibody (Merck Millipore) in TBS-T followed by a washing step for 30 min with TBS-T and a final 60-min incubation with 1:10,000 horseradish […] anti-rabbit IgG (Promega) in TBS-T. Chemiluminescent reaction was measured using Pierce ECL immunoblotting substrate (Thermo Scientific) in a LAS 3000 image analyzer (Fujifilm Life Science, Tokyo, Japan) followed by densitometric analysis using Multi Gauge image-analysis software (Fujifilm Life Science, Tokyo, Japan). The inhibitor concentrations required to halve the chemiluminescence intensity (IC50) were determined using Prism 4.1 (GraphPad Software, San Diego, CA, USA).

[4] = Staphylococcus aureus, NEWMAN, Fig 2
[5] = Staphylococcus aureus, NEWMAN, Fig 2, value in parentheses
[6] = Table ST3, value in parentheses
[7] = ATCC29701, read-out: MIC P. haemolytica, Table 1
[8] = ATCC29701, read-out: MIC P. haemolytica, Table ST1
[9] = bound from first screening at 2 mM

Row | Structure (SMILES) | MIC ([1]; read-out: MIC E coli D21f2) | MIC ([1]; read-out: MIC E. coli D21f2) | MIC [2, 4] | MIC [2, 5] | MIC S. aureus [2] | MIC [2, 6] | MIC [3, 7] | MIC [3, 8] | Haemolysis (sheep red blood cells) | IC50 (E. coli EnvZ; [9]) | IC50 (S. aureus PhoR) | MIC ([3]; ATCC29701, Table 1, read-out: MIC P. haemolytica) | MIC P. haemolytica ([3]; Table ST1) | IC50 (E. coli EnvZ; ± SD, n = 2, 10 mM ATP)
1 | COc1ccc(-c2[nH]nc(C(F)(F)F)c2-c2ccccc2)c(O)c1 [DPP-2] | 50 µg/mL (≈ 150 µM) | 50 µg/mL (≈ 150 µM) | 12.5 µg/mL | 37.3 µM | 12.50 µg/mL (≈ 37.4 µM) | 37.3 µM | 50 µg/mL (≈ 150 µM) | 50 µg/mL (≈ 150 µM) | MILD | < 2000 µM |  |  |  | 
2 | Oc1ccc(-c2n[nH]c(C(F)(F)F)c2-c2ccc(Cl)cc2)c(O)c1 [DPP-5] | 50 µg/mL (≈ 141 µM) | 50 µg/mL (≈ 141 µM) | 3.12 µg/mL | 8.79 µM | 3.12 µg/mL (≈ 8.8 µM) | 8.79 µM |  |  |  |  | 95 ± 5.6 µM | 12.5 µg/mL (≈ 35.2 µM) | 12.5 µg/mL (≈ 35.2 µM) | 117 ± 6.3 µM
3 | COc1ccc(-c2[nH]nc(C(F)(F)F)c2-c2ccc(Cl)cc2)c(O)c1 [DPP-6] | 25 µg/mL (≈ 67.8 µM) | 25 µg/mL (≈ 67.8 µM) | 3.12 µg/mL | 8.43 µM | 3.12 µg/mL (≈ 8.46 µM) | 8.43 µM | 12.5 µg/mL (≈ 33.9 µM) | 12.5 µg/mL (≈ 33.9 µM) | YES |  | 55 ± 3.8 µM |  |  | 98 ± 11.8 µM
4 | CCOc1ccc(-c2[nH]nc(C(F)(F)F)c2-c2ccc(Cl)cc2)c(O)c1 [DPP-7] | 25 µg/mL (≈ 65.3 µM) | 25 µg/mL (≈ 65.3 µM) | 3.12 µg/mL | 8.21 µM | 3.12 µg/mL (≈ 8.15 µM) | 8.21 µM | 25 µg/mL (≈ 65.3 µM) | 25 µg/mL (≈ 65.3 µM) | YES | < 2000 µM |  |  |  | 
5 | COc1ccc(-c2c(C(F)(F)F)n[nH]c2-c2ccc(O)cc2O)cc1 [DPP-12] | > 50 µg/mL | > 250 µg/mL | 12.5 µg/mL | 35.7 µM | 12.50 µg/mL (≈ 35.7 µM) | 35.71 µM | 50 µg/mL (≈ 143 µM) | 62.5 µg/mL (≈ 178 µM) |  |  | 328 ± 4.1 µM |  |  | 427 ± 9.1 µM
6 | COc1ccc(-c2c(C(F)(F)F)n[nH]c2-c2ccc(OC)cc2O)cc1 [DPP-13] | > 50 µg/mL | > 250 µg/mL | 12.5 µg/mL | 34.3 µM | 12.50 µg/mL (≈ 34.3 µM) | 34.34 µM | > 250 µg/mL | > 250 µg/mL |  |  | 89 ± 6.9 µM |  |  | 175 ± 10.1 µM
